Test results taken from patent publication US6514967B1 (priority 1997, dated 2003).

What was measured:
[1] = Concentration in brain and plasma after systemic injection; type: in vivo, rats of the Wistar strain
Method: Experimental preparation: [Amer. J. Physiol., 267 (1994) R164-R170]
Under general anaesthesia, catheters made from tubes of flexible and inert polyethylene PE50 (Clay Adams) are placed in the right carotid artery of male rats of the Wistar strain weighing 250 g, and are slid under the skin to emerge at the nape at a site that is inaccessible to the animal. The injections are carried out 5 days later, to allow the animals optimum post-operative recovery. This arrangement permits easy and very quick systemic injections on the animal while it is conscious.
At the specified time after injection, the animals are killed by decapitation. The brains are removed in less than a minute without further fractionation. The meninges are quickly separated and the brains are rinsed in a large volume of physiological serum before being frozen at −30° C. The blood is collected on EDTA in tubes maintained at 0° C. After centrifugation, the plasma is separated and aliquots are preserved at −30° C.
After thawing, the brains are weighed and homogenized in the cold in 3 volumes of NaOH (0.1N), using an Ultra-Turrax pulverizer. An internal standard, at a suitable concentration, is added to each sample to allow for individual variations in extraction. The pulverizates are directly extracted three times with a total of 6 volumes of ethyl acetate, followed each time by centrifugation at high speed.
Apart from the stage of pulverizing, the plasmas are treated similarly.
The extracts are filtered through a 0.22 μm Millipore membrane and, after evaporation of the solvent under a nitrogen stream, the dry extracts are stored at −30° C.
One of the compounds of the invention (IC 180), diluted in physiological serum, is injected at a concentration equal to 20 mg.kg^−1. […] Its concentration decreases by about 50% in the brain, 1 hour after injection. […] The ratio of the concentrations between the brain and the plasma therefore increases between 30 and 60 minutes after injection.

[2] = Chemical test of capture of OH• radicals (deoxyribose competition); type: biochemical; conditions: rate constant of reaction of the competitor with OH•; competition with 2-deoxyribose, UV at 532 nm
Method: A) Chemical test of capture of OH^• radicals:
(Free Rad. Res. Comms., Vol. 14, Nos. 5-6, pp. 363-372)
[…] of buffer (30 mM Na2HPO4.7H2O, 40 mM NaCl, 0.1 mM EDTA), 125 ml of deoxyribose at 2.10^−3 mM and 125 ml of 4-times concentrated solution of radical inhibitor (final concentration from 0 to 0.5 mM) were placed in glass haemolysis tubes cooled on an ice bath. […] of FeSO4 at 10^−3 mM (in water) is added at time 0. After 15 min of incubation the reaction is stopped with 250 ml of trichloroacetic acid at 3%, to which is added 250 ml of solution of thiobarbituric acid at 1.5% (in water). The tubes are kept at 100° C. for 10 min then cooled for detection with UV at 532 nm. The linear relation A0/A=1+ks/dkr [(competitor)/(2-deoxyribose)] was used, where A0 and A denote the absorbances in the absence and in the presence of competitor, ks is the rate constant of reaction of the competitor with OH• and kdr=1.9*10^9 M^−1 sec^−1 is the rate constant of reaction of 2-deoxyribose with OH•. Thus ks is equal to the gradient of the straight line A0/A f((competitor)/(2-deoxyribose)) multiplied by kdr.

[3] = tested on: release of free radicals induced by glutamate in the striatum; assay: In vivo intracerebral perfusion (striatum microdialysis), generation of radicals by injection of glutamate; conditions: 1 mM in perfusion medium
From the text: C) tests in vivo on intracerebral perfusion and generation of radicals by injection of glutamate.
Experimental preparation: [J. Neurosci. Methods, 72 (1997) 123-135]
The animals used are male rats of the Wistar strain weighing 250 g. Under general anaesthesia, the animals are placed in a stereotaxic apparatus. A cannula guide is introduced by microsurgery into the striatum (coordinates A : +0.02 cm; L: −0.30 cm and H: −0.65 cm relative to the 0 point defined according to Paxinos and Watson). Three to four screws are arranged on the animal's skull and the whole is fixed with dental cement (Durelon). After a recovery period during which the animals become used to the tester, a CMA 12 microdialysis cannula is inserted in the guide in such a way that the cellophane membrane projects 2 mm into the brain tissue. All the perfusions are effected on animals that are awake. A physiological solution (NaCl: 140 mM; KCl: 5 mM; […]: 3.9 mM), to which 250 μM of Na salicylate is added extemporaneously, is injected into the system at a constant flow rate of 1 μl.min^−1. […]
Salicylic acid present in the perfusion fluid reacts with the OH radicals released at the perfusion site, forming a compound, 2,3-dihydroxybenzoic acid (2,3-DBHA), which is specific to this reaction. This reaction product is quantified in each sample by high-performance liquid chromatography followed by Electrochemical Detection. […]

[4] = 30 min after injection of 20 mg.kg^−1
[5] = 1 hour after injection of 20 mg.kg^−1

c1cc2c(s1)CCCC2N1CCOCC1 (centres unmarked) [IC180, morpholine-4-tetrahydro-4,5,6,7-benzothiophene]
detection in the brain [1, 4]: detected preferentially in the brain
detection in the plasma [1, 4]: clearly identifiable in the plasma
decrease of concentration in the brain [1, 5]: about 50%
detection in the plasma [1, 5]: can only be detected very slightly
ratio of the concentrations between the brain and the plasma ([1]; between 30 and 60 minutes after injection, FIG. 10): increases
ks (10^−9M^−1 sec^−1) (±SEM) [2]: 3.75 ± 0.33 10^−9M^−1 sec^−1
release of free radicals induced by glutamate (2,3-dihydroxybenzoic acid) ([3]; striatum, awake rats, 1.5 mM Na glutamate, FIG. 9): Blocking
toxic side effect of introduction in situ ([3]; response restored a week later): did not have a toxic side effect
